Measurements taken from article PMC11767661 (Molecules, 2025).
Entries after “also recorded” stand apart in the source; their conditions may differ.

Key:
[1] = Peptide hydrolysis in Hepes buffer alone or with Cu2+/Zn2+, followed by HPLC-ESI/MS; format: physicochemical; settings: 50 mM HEPES pH 7.4, 4 °C, LC-MS relative % area
Procedure: Herein, we analyzed the hydrolytic process of Aβ peptides in 50 mM Hepes buffer at 7.4 physiological pH over two weeks at two distinct temperatures, 4 °C and 37 °C, using mass spectrometry coupled with high-performance liquid chromatography (HPLC-MS) for precise analysis. Additionally, we explored the impact of copper(II) or zinc(II) ions, each added in a 1:1 molar ratio to the peptides, on the resulting hydrolytic fragmentation patterns. It is worth noting that metal binding only occurs at the N-terminal region of Aβ peptides, specifically interacting with histidine residues. The commonly accepted peptide sequence 1–16 (^1[…]^16, Aβ16) is widely used as a model for this interaction due to its inclusion of all three histidines (His6, His13, and His14) known for their key roles in coordinating metal ions. Therefore, the initial studies were performed on this short peptide.
General. All chemicals were of reagent grade and purchased from Sigma-Aldrich. Preparative HPLC was carried out with a Shimadzu LC-20AD Prominence instrument equipped with a diode array detector. Mass spectra and LCMS/MS data were performed with an LCQ ADV MAX ion-trap mass spectrometer equipped with an ESI ion source. The instrument was run in an automated LC-MS/MS mode and using a surveyor HPLC system (Thermo Finnigan, San Jose, CA, USA) equipped with a Phenomenex Jupiter 4u Proteo column (4 μm, 150 × 2.0 mm). For the analysis of peptide fragments, Bioworks 3.1 and Xcalibur 2.0.7 SP1 software were used (Thermo Finnigan, San Jose, CA, USA).
Peptide hydrolysis in the presence of metal ions. Solutions of Aβ16 and Aβ28 (500 µM) alone or with the addition of Cu(NO3)2 (1 eqv., 500 µM) or ZnCl2 (1 eqv., 500 µM) were prepared in 50 mM Hepes buffer at pH 7.4. The solutions were then incubated at 4 °C or 37 °C (only for Aβ16) in atmospheric air and every 7 days aliquots were taken, diluted to the 25 µM final concentration with Hepes buffer, and analyzed by HPLC-ESI/MS. The solution of R1τ, Ac-R1τ, αSyn15, and Ac-αSyn15 (25 µM) fragments were incubated in 50 mM Hepes buffer at 4 °C for 14 days; at the same time, solutions also containing copper(II) or zinc(II) in a 1:1 molar ratio respect to peptide were prepared. The elution was performed by using 0.1% HCOOH in distilled water (solvent A) and 0.1% HCOOH in acetonitrile (solvent B), with a flow rate of 0.2 mL/min. Elution started with 98% solvent A for 5 min, followed by a linear gradient from 98 to 55% A in 55 min. […] For the analysis of peptide fragments, Bioworks 3.1 and Xcalibur 2.0.7 SP1 software were used (Thermo Finnigan, San Jose, CA, USA).

[2] = 50 mM Hepes buffer at pH 7.4, peptide alone; settings: 4 °C, up to 14 days
[3] = 50 mM HEPES buffer at pH 7.4 with 25 µM copper(II) nitrate; settings: 4 °C, up to 14 days
[4] = 50 mM HEPES buffer at pH 7.4 with 25 µM zinc(II) chloride; settings: 4 °C, up to 14 days
[5] = complex of copper(II) with the buffer; cited from earlier work
From the text: Shifting in fragmentation sites could be related to structural alterations induced by the N-protection. It is commonly accepted that the N-capping ...

[6] = Aβ28 500 µM + 500 µM zinc(II) chloride, 14 days
[7] = Aβ28 500 µM + 500 µM zinc(II) chloride, 21 days
[8] = Aβ28 500 µM + 500 µM copper(II) nitrate, 14 days
[9] = Aβ28 500 µM + 500 µM copper(II) nitrate, 21 days

Compound: Q.KLVFFAEDVGSNK [hydrolytic fragment 16-28 of Aβ28]
- Remaining amount of Aβ28 and species detected by LC-MS (Table S2) [1, 6]: 10%
- Remaining amount of Aβ28 and species detected by LC-MS (Table S2) [1, 7]: 13%
- Remaining amount of Aβ28 and species detected by LC-MS (Table S2) ([1]; Aβ28 500 µM alone, 14 days): 16%

Compound: DAEFRHDSGYEVHHQKLV.F [hydrolytic fragment 1-18 of Aβ28]
- Remaining amount of Aβ28 and species detected by LC-MS (Table S2) [1, 8]: 4%
- Remaining amount of Aβ28 and species detected by LC-MS (Table S2) [1, 9]: 7%
- Remaining amount of Aβ28 and species detected by LC-MS (Table S2) [1, 6]: 7%
- Remaining amount of Aβ28 and species detected by LC-MS (Table S2) [1, 7]: 10%
- Remaining amount of Aβ28 and species detected by LC-MS (Table S2) ([1]; Aβ28 500 µM alone, 14 days): 5%

Compound: DAEFRHDSGYEVHHQKLVFFAE.D [hydrolytic fragment 1-22 of Aβ28]
- Remaining amount of Aβ28 and species detected by LC-MS (Table S2) [1, 8]: 3%
- Remaining amount of Aβ28 and species detected by LC-MS (Table S2) [1, 9]: 5%
- Remaining amount of Aβ28 and species detected by LC-MS (Table S2) [1, 6]: 9%
- Remaining amount of Aβ28 and species detected by LC-MS (Table S2) [1, 7]: 7%

Compound: Ac-^256VKSKIGSTENLKHQPGGG^273-NH2
- cleaved bond [2]: K259-I260, 14 days; also recorded: G261-S262, 14 days; also recorded: I260-G261, 14 days; also recorded: E264-N265, 14 days; also recorded: S258-K259, 14 days; also recorded: Q269-P270, 14 days; also recorded: K267-H268, 14 days; also recorded: L266-K267, 14 days
- cleaved bond [3]: G261-S262, 14 days; also recorded: N265-L266, 14 days; also recorded: E264-N265, 14 days
- cleaved bond [4]: G261-S262, 14 days; also recorded: N265-L266, 14 days; also recorded: E264-N265, 14 days; also recorded: K267-H268, 14 days

Compound: ^1MDVFMKGLSKAKEGV^15-NH2
- cleaved bond [2]: K6-G7, 14 days; also recorded: F4-M5, 14 days; also recorded: L8-S9, 14 days
- cleaved bond [3]: K12-E13, 14 days; also recorded: K6-G7, 14 days; also recorded: F4-M5, 14 days; also recorded: L8-S9, 14 days
- cleaved bond [4]: K6-G7, 14 days; also recorded: F4-M5, 14 days; also recorded: L8-S9, 14 days

Compound: O=S(=O)(O)CCN1CCN(CCO)CC1 [Hepes]
- Copper(II) complex formation constant (log K) [5]: 3

Compound: DAEFRHDSGYEVHHQKLVF.F [hydrolytic fragment 1-19 of Aβ28]
- Remaining amount of Aβ28 and species detected by LC-MS (Table S2) [1, 8]: 1%
- Remaining amount of Aβ28 and species detected by LC-MS (Table S2) [1, 9]: 1%
- Remaining amount of Aβ28 and species detected by LC-MS (Table S2) [1, 6]: 7%
- Remaining amount of Aβ28 and species detected by LC-MS (Table S2) [1, 7]: 6%

Compound: H-MDVFMKGLSKAKEGV-NH2
- amount (%) of intact peptide after hydrolysis: > 90%

Compound: ^256VKSKIGSTENLKHQPGGG^273-NH2
- cleaved bond [2]: G261-S262, 14 days; also recorded: N265-L266, 14 days
- cleaved bond [3]: N265-L266, 14 days; also recorded: S258-K259, 14 days; also recorded: Q269-P270, 14 days
- cleaved bond [4]: K259-I260, 14 days; also recorded: I260-G261, 14 days; also recorded: E264-N265, 14 days; also recorded: K267-H268, 14 days

Compound: E.FRHDSGYEVHHQ.K [hydrolytic fragment 4-15 of Aβ28]
- Remaining amount of Aβ28 and species detected by LC-MS (Table S2) ([1]; Aβ28 500 µM alone, 14 days): 2%

Compound: K.LVFFAEDVGSNK [hydrolytic fragment 17-28 of Aβ28]
- Remaining amount of Aβ28 and species detected by LC-MS (Table S2) [1, 8]: 1%
- Remaining amount of Aβ28 and species detected by LC-MS (Table S2) [1, 9]: 1%
- Remaining amount of Aβ28 and species detected by LC-MS (Table S2) [1, 6]: 5%
- Remaining amount of Aβ28 and species detected by LC-MS (Table S2) [1, 7]: 4%
- Remaining amount of Aβ28 and species detected by LC-MS (Table S2) ([1]; Aβ28 500 µM alone, 14 days): 22%

Compound: Ac-^1MDVFMKGLSKAKEGV^15-NH2
- cleaved bond [2]: K6-G7, 14 days; also recorded: K10-A11, 14 days; also recorded: L8-S9, 14 days
- cleaved bond [3]: L8-S9, 14 days
- cleaved bond [4]: L8-S9, 14 days
